# Test results reported in PubChem BioAssay AID248 (DTP/NCI, 2004).
# Where “and” joins values, the source holds several entries; their conditions need not be identical. Identical values can stand only once. Toxic doses and inconclusive results are not listed.
# Test system: L1210 leukemia ip in BDF1 mice, survival T/C
# Assay: NCI In Vivo Anticancer Drug Screen. Data for tumor model L1210 Leukemia (intraperitoneal) in B6D2F1 (BDF1) mice
# Details: higher = longer survival
# In short: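 Each compound was tested against a transplantable tumor grown in mice. The endpoint was survival, with treated animals benchmarked against vehicle controls as a simple ratio.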
# [1] = endpoint: mean survival time, dose: 50.0 mg/kg/injection, schedule: Q01DX009 (ip), vehicle: saline with Tween-80
# [2] = endpoint: mean survival time, dose: 100.0 mg/kg/injection, schedule: Q01DX009 (ip), vehicle: saline with Tween-80
# [3] = endpoint: mean survival time, dose: 200.0 mg/kg/injection, schedule: Q01DX009 (ip), vehicle: saline with Tween-80
# [4] = endpoint: mean survival time, dose: 100.0 mg/kg/injection, schedule: Q04DX003 (ip), vehicle: saline with Tween-80
# [5] = endpoint: mean survival time, dose: 200.0 mg/kg/injection, schedule: Q04DX003 (ip), vehicle: saline with Tween-80
# [6] = endpoint: mean survival time, dose: 400.0 mg/kg/injection, schedule: Q04DX003 (ip), vehicle: saline with Tween-80
# [7] = endpoint: mean survival time, dose: 25.0 mg/kg/injection, schedule: Q01DX009 (ip), vehicle: Klucel (hydroxypropylcellulose) (HPC)
# [8] = endpoint: mean survival time, dose: 100.0 mg/kg/injection, schedule: Q04DX003 (ip), vehicle: Klucel (hydroxypropylcellulose) (HPC)
# [9] = endpoint: mean survival time, dose: 200.0 mg/kg/injection, schedule: Q04DX003 (ip), vehicle: Klucel (hydroxypropylcellulose) (HPC)
# [10] = endpoint: mean survival time, dose: 400.0 mg/kg/injection, schedule: Q04DX003 (ip), vehicle: Klucel (hydroxypropylcellulose) (HPC)
# [11] = endpoint: mean survival time, dose: 100.0 mg/kg/injection, schedule: Q01DX009 (ip), vehicle: Klucel (hydroxypropylcellulose) (HPC)
smiles,measurement,setting,value
Cc1ccc(S(=O)(=O)OCC23CCC2(COS(=O)(=O)c2ccc(C)cc2)COC3)cc1 (stereo unspecified),T/C,"endpoint: mean survival time, dose: 75.0 mg/kg/injection, schedule: Q01DX001 (ip), vehicle: saline",96 % of control
same,T/C,"endpoint: mean survival time, dose: 75.0 mg/kg/injection, schedule: Q01DX009 (ip), vehicle: saline",94 % of control
same,T/C,"endpoint: mean survival time, dose: 150.0 mg/kg/injection, schedule: Q01DX001 (ip), vehicle: saline",93 % of control
same,T/C,"endpoint: mean survival time, dose: 300.0 mg/kg/injection, schedule: Q01DX001 (ip), vehicle: saline",95 % of control
same,T/C,"endpoint: mean survival time, dose: 300.0 mg/kg/injection, schedule: Q01DX009 (ip), vehicle: saline",89 % of control
CC#CC1(O)CCC2C3CC(C)C4CC(=O)CCC4(C)C3CCC21C (stereo unspecified),T/C,"endpoint: mean survival time, dose: 146.0 mg/kg/injection, schedule: Q01DX Z (sc), vehicle: steriod suspending solution",108 % of control
same,T/C,"endpoint: mean survival time, dose: 222.0 mg/kg/injection, schedule: Q01DX Z (sc), vehicle: steriod suspending solution",112 % of control
same,T/C,"endpoint: mean survival time, dose: 333.0 mg/kg/injection, schedule: Q01DX Z (sc), vehicle: steriod suspending solution",112 % of control
same,T/C,"endpoint: mean survival time, dose: 500.0 mg/kg/injection, schedule: Q01DX Z (sc), vehicle: steriod suspending solution",106 % of control
N=c1nc2n(cc1F)C1OC(CO)C(O)C1O2 (stereo unspecified),T/C,"endpoint: median survival time, dose: 200.0 mg/kg/injection, schedule: Q01DX005 (ip), vehicle: other",163 % of control
same,T/C,"endpoint: median survival time, dose: 400.0 mg/kg/injection, schedule: Q01DX005 (ip), vehicle: other",163 % of control
COc1ccccc1OCC(=O)N1CCCCC1,T/C,"endpoint: mean survival time, dose: 100.0 mg/kg/injection, schedule: Q04DX002 (ip), vehicle: saline",101 % of control
same,T/C,"endpoint: mean survival time, dose: 200.0 mg/kg/injection, schedule: Q04DX002 (ip), vehicle: saline",107 % of control
same,T/C,"endpoint: mean survival time, dose: 400.0 mg/kg/injection, schedule: Q04DX002 (ip), vehicle: saline",90 % of control
CC(C)(O)Cc1ccc(Br)cc1,T/C,[1],95 % of control
same,T/C,[2],103 % of control
same,T/C,[3],111 % of control
Cc1cc(C)c(NC(=S)NC(=O)C(C)Oc2ccccc2)c(C)c1 (stereo unspecified),T/C,"endpoint: mean survival time, dose: 100.0 mg/kg/injection, schedule: Q01DX001 (ip), vehicle: saline with Tween-80",97 % of control
same,T/C,[2],96 % of control and 100 % of control
same,T/C,"endpoint: mean survival time, dose: 100.0 mg/kg/injection, schedule: Q04DX002 (ip), vehicle: saline with Tween-80",101 % of control and 104 % of control
same,T/C,[4],93 % of control
same,T/C,"endpoint: mean survival time, dose: 200.0 mg/kg/injection, schedule: Q01DX001 (ip), vehicle: saline with Tween-80",97 % of control
same,T/C,[3],97 % of control and 92 % of control
same,T/C,"endpoint: mean survival time, dose: 200.0 mg/kg/injection, schedule: Q04DX002 (ip), vehicle: saline with Tween-80",97 % of control and 110 % of control
same,T/C,[5],93 % of control
same,T/C,"endpoint: mean survival time, dose: 400.0 mg/kg/injection, schedule: Q01DX001 (ip), vehicle: saline with Tween-80",103 % of control
same,T/C,"endpoint: mean survival time, dose: 400.0 mg/kg/injection, schedule: Q01DX009 (ip), vehicle: saline with Tween-80",102 % of control
same,T/C,"endpoint: mean survival time, dose: 400.0 mg/kg/injection, schedule: Q04DX002 (ip), vehicle: saline with Tween-80",93 % of control and 121 % of control
same,T/C,[6],93 % of control
C[C@]12CC[C@H](OC3OC(CO)C(O)C(O)C3O)C[C@H]1CC[C@@H]1[C@@H]2CC[C@]2(C)[C@@H](C3=CCOC3=O)CC[C@]12O (stereo partly specified),T/C,"endpoint: mean survival time, dose: 0.5 mg/kg/injection, schedule: Q01DX001 (ip), vehicle: saline",103 % of control
same,T/C,"endpoint: mean survival time, dose: 0.5 mg/kg/injection, schedule: Q01DX010 (ip), vehicle: saline",98 % of control
same,T/C,"endpoint: mean survival time, dose: 1.0 mg/kg/injection, schedule: Q01DX001 (ip), vehicle: saline",105 % of control
same,T/C,"endpoint: mean survival time, dose: 1.0 mg/kg/injection, schedule: Q01DX010 (ip), vehicle: saline",107 % of control
same,T/C,"endpoint: mean survival time, dose: 2.0 mg/kg/injection, schedule: Q01DX001 (ip), vehicle: saline",105 % of control
same,T/C,"endpoint: mean survival time, dose: 2.0 mg/kg/injection, schedule: Q01DX010 (ip), vehicle: saline",107 % of control
same,T/C,"endpoint: mean survival time, dose: 4.0 mg/kg/injection, schedule: Q01DX001 (ip), vehicle: saline",103 % of control
same,T/C,"endpoint: mean survival time, dose: 8.0 mg/kg/injection, schedule: Q01DX001 (ip), vehicle: saline",103 % of control
same,T/C,"endpoint: mean survival time, dose: 16.0 mg/kg/injection, schedule: Q01DX001 (ip), vehicle: saline",108 % of control
O=S(=O)(OCC#CCOS(=O)(=O)c1cccs1)c1cccs1,T/C,"endpoint: mean survival time, dose: 6.2 mg/kg/injection, schedule: Q01DX009 (ip), vehicle: Klucel (hydroxypropylcellulose) (HPC)",101 % of control
same,T/C,"endpoint: mean survival time, dose: 12.5 mg/kg/injection, schedule: Q01DX009 (ip), vehicle: Klucel (hydroxypropylcellulose) (HPC)",111 % of control
same,T/C,[7],105 % of control
same,T/C,"endpoint: mean survival time, dose: 100.0 mg/kg/injection, schedule: Q01DX001 (ip), vehicle: Klucel (hydroxypropylcellulose) (HPC)",109 % of control
same,T/C,[8],97 % of control
same,T/C,"endpoint: mean survival time, dose: 200.0 mg/kg/injection, schedule: Q01DX001 (ip), vehicle: Klucel (hydroxypropylcellulose) (HPC)",106 % of control
same,T/C,[9],105 % of control
same,T/C,"endpoint: mean survival time, dose: 400.0 mg/kg/injection, schedule: Q01DX001 (ip), vehicle: Klucel (hydroxypropylcellulose) (HPC)",103 % of control
Nc1cc2ccccc2cn1,T/C,[8],112 % of control
same,T/C,[9],102 % of control
same,T/C,[10],107 % of control
O=C(Nc1cccc(C(F)(F)F)c1)c1ccc(Cl)c(Cl)c1,T/C,"endpoint: mean survival time, dose: 100.0 mg/kg/injection, schedule: Q01DX009 (ip), vehicle: gum acacia",108 % of control
same,T/C,"endpoint: mean survival time, dose: 100.0 mg/kg/injection, schedule: Q04DX003 (ip), vehicle: gum acacia",100 % of control
same,T/C,"endpoint: mean survival time, dose: 200.0 mg/kg/injection, schedule: Q04DX003 (ip), vehicle: gum acacia",100 % of control
same,T/C,"endpoint: mean survival time, dose: 400.0 mg/kg/injection, schedule: Q01DX009 (ip), vehicle: gum acacia",96 % of control
same,T/C,"endpoint: mean survival time, dose: 400.0 mg/kg/injection, schedule: Q04DX003 (ip), vehicle: gum acacia",95 % of control
COC(=O)c1ccccc1NC(=O)c1ccccc1C(=O)O,T/C,[7],100 % of control
same,T/C,"endpoint: mean survival time, dose: 50.0 mg/kg/injection, schedule: Q01DX009 (ip), vehicle: Klucel (hydroxypropylcellulose) (HPC)",103 % of control
same,T/C,[11],93 % of control and 102 % of control
same,T/C,"endpoint: mean survival time, dose: 100.0 mg/kg/injection, schedule: Q04DX002 (ip), vehicle: Klucel (hydroxypropylcellulose) (HPC)",98 % of control
same,T/C,"endpoint: mean survival time, dose: 150.0 mg/kg/injection, schedule: Q01DX009 (ip), vehicle: Klucel (hydroxypropylcellulose) (HPC)",100 % of control
same,T/C,"endpoint: mean survival time, dose: 225.0 mg/kg/injection, schedule: Q01DX009 (ip), vehicle: Klucel (hydroxypropylcellulose) (HPC)",97 % of control
same,T/C,"endpoint: mean survival time, dose: 335.0 mg/kg/injection, schedule: Q01DX009 (ip), vehicle: Klucel (hydroxypropylcellulose) (HPC)",102 % of control
CC(=O)N1C(=O)NC(=O)C1(C)c1cccs1 (stereo unspecified),T/C,[4],104 % of control
same,T/C,[5],98 % of control
same,T/C,[6],105 % of control
CCOC(=O)c1ccccc1NC(c1ccccc1)c1ccc2cccnc2c1O (stereo unspecified),T/C,"endpoint: mean survival time, dose: 100.0 mg/kg/injection, schedule: Q01DX001 (ip), vehicle: saline",101 % of control
same,T/C,"endpoint: mean survival time, dose: 200.0 mg/kg/injection, schedule: Q01DX001 (ip), vehicle: saline",97 % of control
same,T/C,"endpoint: mean survival time, dose: 400.0 mg/kg/injection, schedule: Q01DX001 (ip), vehicle: saline",91 % of control
CCN1CC=CCC1,T/C,"endpoint: mean survival time, dose: 25.0 mg/kg/injection, schedule: Q04DX003 (ip), vehicle: saline",93 % of control
same,T/C,"endpoint: mean survival time, dose: 50.0 mg/kg/injection, schedule: Q01DX009 (ip), vehicle: saline",100 % of control
same,T/C,"endpoint: mean survival time, dose: 50.0 mg/kg/injection, schedule: Q04DX003 (ip), vehicle: saline",98 % of control
same,T/C,"endpoint: mean survival time, dose: 100.0 mg/kg/injection, schedule: Q01DX009 (ip), vehicle: saline",100 % of control
same,T/C,"endpoint: mean survival time, dose: 100.0 mg/kg/injection, schedule: Q04DX003 (ip), vehicle: saline",103 % of control and 91 % of control
C#Cc1ccc([N+](=O)[O-])cc1,T/C,[11],95 % of control
same,T/C,[8],88 % of control
same,T/C,"endpoint: mean survival time, dose: 200.0 mg/kg/injection, schedule: Q01DX009 (ip), vehicle: Klucel (hydroxypropylcellulose) (HPC)",94 % of control
same,T/C,[9],91 % of control
same,T/C,"endpoint: mean survival time, dose: 400.0 mg/kg/injection, schedule: Q01DX009 (ip), vehicle: Klucel (hydroxypropylcellulose) (HPC)",95 % of control
same,T/C,[10],93 % of control
OC1CCCCC1(c1ccccc1)c1ccccc1 (stereo unspecified),T/C,[1],94 % of control
same,T/C,[2],91 % of control
same,T/C,[3],91 % of control
